Measured values taken from PubChem BioAssay (NCI).
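Values below derive from 48-hour exposures of cells grown in 96-well plates, with endpoints linearly interpolated between the two concentrations bracketing the appropriate inhibition level. At the TGI there is no net growth.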

Tests used:
Assay in all cases: NCI anticancer screen, dose series, 48 h
IGROV1 ovarian = system: IGROV1 ovarian
MDA-MB-231 breast = system: MDA-MB-231 breast
SF-295 CNS = system: SF-295 CNS
SR leukemia = system: SR leukemia
PC-3 prostate = system: PC-3 prostate
SF-539 CNS = system: SF-539 CNS
HOP-92 NSCLC = system: HOP-92 NSCLC
HCT-15 colon = system: HCT-15 colon
HCC-2998 colon = system: HCC-2998 colon
BT-549 breast = system: BT-549 breast

| SMILES | TGI (IGROV1 ovarian) [µM] | TGI (MDA-MB-231 breast) [µM] | TGI (SF-295 CNS) [µM] | TGI (SR leukemia) [µM] | TGI (PC-3 prostate) [µM] | TGI (SF-539 CNS) [µM] | TGI (HOP-92 NSCLC) [µM] | TGI (HCT-15 colon) [µM] | TGI (HCC-2998 colon) [µM] | TGI (BT-549 breast) [µM] |
| --- | --- | --- | --- | --- | --- | --- | --- | --- | --- | --- |
| Cc1ccnc2[nH]c(-c3ccc(Cl)cc3)cc(=O)c12 | > 100 | > 100 | > 100 | 5.97 | > 100 | > 100 | > 100 | > 100 | > 100 | > 100 |
| Cc1cccc(N=Nc2ccc(O)c(CN(C)C)c2)c1 | 65.9 | > 100 | 86.5 | > 100 | > 100 | 41.6 | > 100 | 80.6 | 30.3 | > 100 |
| O=C(NC12CC3CC(CC(C3)C1)C2)n1cnc2c(Cl)ncnc21 | 35.4 | > 100 | > 100 | 29 | 66.6 | 81.7 | > 100 | > 100 | 38.9 | 84.1 |
| COc1cc([C@@H]2c3cc4c(cc3[C@H](OC3OC5COC(C(C)C)OC5C(O)C3O)C3COC(=O)[C@@H]32)OCO4)cc(OC)c1OC (stereo not given in full) | 12.5 | 19.2 | > 23.8 | 66.5 | 22.4 | > 25.9 | 24.6 | 94.1 | 21.7 | 20.2 |
| CCCCCCCCC/C=C1/CC(CO)(COC(=O)C2CCCCC2)OC1=O (stereo not given) | > 100 | > 100 | > 100 | > 100 | > 100 | – | > 100 | > 100 | > 100 | > 100 |
| Cc1cc2nc3c(C)c4ccccc4c(C)n3c2cc1C | > 10 | 7.51 | > 10 | 9.01 | > 10 | 4.88 | 8.45 | 6.14 | > 10 | > 10 |
| CC(C)C(C=O)C(O)(C(F)(F)F)C(F)(F)F (stereo not given) | – | > 100 | > 100 | > 100 | > 100 | > 100 | > 100 | > 100 | > 100 | > 100 |
| CN1CN(c2ccccc2)C2(CCN(C(=O)OC(C)(C)C)CC2)C1=O | > 100 | > 100 | > 100 | > 100 | > 100 | > 100 | > 100 | > 100 | > 100 | > 100 |
| COc1cc(/C=[N+](\[O-])c2ccccc2Cl)ccc1OC(=S)S | > 100 | > 100 | > 100 | > 100 | > 100 | > 100 | 49.2 | > 100 | > 100 | 68.3 |
| C=C1C(O)C2OC(=O)C(=C)C2C(OC(=O)/C(C)=C/C)CC2(C)OC2C2OC12 (stereo not given) | > 100 | 37.9 | 50.9 | 24.5 | 54.4 | > 100 | 65.4 | 14.5 | 21.6 | 27.2 |
| COc1cc2c(cc1OC)C/C(=N\O)c1cc(OC)c(OC)cc1/C=C\2 | 72.8 | > 29.3 | > 61 | > 50.8 | > 100 | 18 | > 100 | > 100 | 31.8 | 97.1 |
| O=C(N/N=C/c1ccc(O)cc1)NNCCO | > 100 | > 100 | > 100 | > 100 | > 100 | > 100 | – | > 100 | > 100 | > 100 |
| CCc1c[n+]2c(cc1C1=CN3c4ccccc4[C@]45CCN6C/C(=C/CO)[C@H](C[C@H]64)[C@@H]([C@@H]1O)[C@H]35)-c1[nH]c3ccccc3c1CC2 | > 50 | > 50 | > 50 | > 50 | > 50 | > 50 | > 50 | > 50 | > 50 | > 50 |
| O=C1/C(=C/Cc2ccco2)N=C(c2ccccc2)N1c1nc2ccc(Sc3ccccc3)cc2[nH]1 | > 100 | 57 | > 100 | 54.6 | 53.6 | > 100 | 67.6 | > 100 | 40.6 | 57.7 |
| CN1C(=O)c2c(c3c4ccccc4n(C)c3c3c2c2ccccc2n3C)C1=O | > 100 | > 100 | > 100 | > 100 | > 100 | > 100 | > 100 | > 100 | > 100 | > 100 |
| COc1ccc2nc3c(nc2c1)C(C)(C)C=C3c1ccc(Br)cc1 | > 100 | > 100 | – | > 100 | > 100 | > 100 | > 100 | > 100 | > 100 | > 100 |
| OC[C@@H](O)[C@H](O)[C@H](O)[C@@H](O)C1SCCCS1 | > 100 | > 100 | > 100 | > 100 | > 100 | > 100 | 92.5 | > 100 | > 100 | > 100 |
| CCOP(=O)(OCC)C(Cc1cn(S(=O)(=O)c2ccc(C)cc2)cn1)C(=O)O (stereo not given) | > 100 | > 100 | > 100 | > 100 | > 100 | > 100 | > 100 | > 100 | > 100 | > 100 |
| CC(=O)O[C@H]1C(=O)[C@@]2(C)C(C(OC(=O)c3ccccc3)[C@]3(O)CC(OC(=O)C(O)C(NC(=O)c4cccc(Cl)c4)c4ccccc4)C(C)=C1C3(C)C)[C@]1(OC(C)=O)CO[C@@H]1C[C@@H]2O (stereo not given in full) | > 10 | 8.72 | > 10 | 5.15 | > 10 | 2.19 | > 10 | > 10 | 4.1 | > 10 |
| CCOC(=O)/C(C(N)=O)=C(/O)c1cnccn1 | > 100 | > 100 | > 100 | > 100 | > 100 | > 100 | > 100 | > 100 | > 100 | > 100 |
| COc1ccc(C2=Nn3c(nc4sc5c(c4c3=O)CCCC5)SC2)cc1 | > 100 | > 100 | > 100 | > 100 | > 100 | > 100 | > 100 | > 100 | > 100 | > 100 |
| O=c1oc2c(Cl)cc(Cl)cc2cc1-c1cn2c(n1)sc1ccccc12 | > 100 | > 100 | > 100 | 53.1 | > 100 | > 100 | > 100 | > 100 | 95 | 87.4 |
| CC(NC(=O)C(NC(=O)C(NC(=O)C(F)(F)F)C(C)C)C(C)C)C(=O)Oc1c(Cl)c(Cl)c(Cl)c(Cl)c1Cl (stereo not given) | > 100 | > 100 | – | > 100 | > 100 | > 100 | > 100 | > 100 | > 100 | > 100 |
| C1=Nc2ccc(cc2)-c2ccc(cc2)N=Cc2ccccc2OCc2cccc(n2)COc2ccccc21 | > 100 | > 66.3 | > 75.9 | > 100 | > 100 | > 66.3 | > 60 | > 100 | > 100 | > 95.4 |
| O=C(O)Cn1cnc2c(=O)[nH]c(Nc3ccccc3)nc21 | > 100 | > 100 | > 100 | > 100 | > 100 | > 100 | > 100 | > 100 | > 100 | > 100 |
| Nc1nc(Cl)cc(Oc2ccc(Cl)cc2)n1 | > 100 | > 100 | > 100 | > 100 | > 100 | > 100 | > 100 | > 100 | > 100 | > 100 |
| CC(C)(C)c1ccc(OCCOc2ccc(C(C)(C)C)cc2NC=O)c(NC=O)c1 | > 100 | 40.5 | 25 | > 48 | > 100 | 21.6 | 23.5 | 26.4 | 23.5 | 32.8 |
| c1ccc(C(OCCN2CC3CCC(C2)N3)c2ccccc2)cc1 | > 100 | > 100 | > 100 | > 100 | > 100 | > 100 | 75.6 | > 100 | 32.3 | > 100 |
